Experimental data from ChEMBL document CHEMBL1201862, “PubChem BioAssay data set” (2004).
Active and inactive are the calls of the source.

Key:
BHK-21 = test: viability loss in BHK-21 cells – cell-based, plate reader, cherry-pick samples, cytotoxicity control, dose response (AID 687030); format: functional; details: Mesocricetus auratus
Vero = test: viability loss in Vero cells – cell-based, plate reader, cherry-pick samples, cytotoxicity control, dose response (AID 687020); format: functional; details: Chlorocebus sabaeus
A549 = test: viability loss in A549 cells – cell-based, plate reader, cherry-pick samples, cytotoxicity control, dose response (AID 687028); format: functional; details: Homo sapiens
[1] = molecular target: T1, DNA repair protein RAD52 homolog (Homo sapiens, UniProt P43351); format: functional, biochemical
T1 sequence (P43351 whole entry): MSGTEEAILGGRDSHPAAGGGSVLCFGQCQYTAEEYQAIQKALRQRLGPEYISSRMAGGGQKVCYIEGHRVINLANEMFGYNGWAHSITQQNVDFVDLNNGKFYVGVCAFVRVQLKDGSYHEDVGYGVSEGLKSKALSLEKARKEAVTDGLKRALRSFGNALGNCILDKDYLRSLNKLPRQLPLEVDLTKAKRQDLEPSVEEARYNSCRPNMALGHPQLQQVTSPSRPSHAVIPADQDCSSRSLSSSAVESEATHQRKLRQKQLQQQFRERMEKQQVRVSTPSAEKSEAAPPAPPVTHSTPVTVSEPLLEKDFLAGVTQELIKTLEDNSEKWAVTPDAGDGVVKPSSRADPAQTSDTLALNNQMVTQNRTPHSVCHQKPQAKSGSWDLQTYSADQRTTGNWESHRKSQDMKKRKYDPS

Prothrombin = Prothrombin (Bos taurus, UniProt P00735); test: thrombin protease inhibitors – biochemical, fluorescence polarization, uHTS hits, dose response (AID 602369); format: functional
[2] = molecular target: 72 kDa type IV collagenase (Homo sapiens, UniProt P08253); test: Dose Response validation of uHTS RPN11 inhibitor hits using a MMP-2 Fluorescence assay.; format: functional
[3] = cytotoxicity toward MDA-MB-231 breast cancer cells – cell-based, CellTiter-Glo luminescence, cherry-pick, cytotoxicity control for RAD54 inhibitor project, dose response (AID 651692); format: functional
[4] = molecular target: T2, DNA repair and recombination protein RAD54-like (Homo sapiens, UniProt Q92698); test: RAD54 Holliday junction migration blockers – biochemical, fluorescence, cherry-picked samples, dose series, confirmation (AID 651657); format: functional
T2 sequence (Q92698 whole entry): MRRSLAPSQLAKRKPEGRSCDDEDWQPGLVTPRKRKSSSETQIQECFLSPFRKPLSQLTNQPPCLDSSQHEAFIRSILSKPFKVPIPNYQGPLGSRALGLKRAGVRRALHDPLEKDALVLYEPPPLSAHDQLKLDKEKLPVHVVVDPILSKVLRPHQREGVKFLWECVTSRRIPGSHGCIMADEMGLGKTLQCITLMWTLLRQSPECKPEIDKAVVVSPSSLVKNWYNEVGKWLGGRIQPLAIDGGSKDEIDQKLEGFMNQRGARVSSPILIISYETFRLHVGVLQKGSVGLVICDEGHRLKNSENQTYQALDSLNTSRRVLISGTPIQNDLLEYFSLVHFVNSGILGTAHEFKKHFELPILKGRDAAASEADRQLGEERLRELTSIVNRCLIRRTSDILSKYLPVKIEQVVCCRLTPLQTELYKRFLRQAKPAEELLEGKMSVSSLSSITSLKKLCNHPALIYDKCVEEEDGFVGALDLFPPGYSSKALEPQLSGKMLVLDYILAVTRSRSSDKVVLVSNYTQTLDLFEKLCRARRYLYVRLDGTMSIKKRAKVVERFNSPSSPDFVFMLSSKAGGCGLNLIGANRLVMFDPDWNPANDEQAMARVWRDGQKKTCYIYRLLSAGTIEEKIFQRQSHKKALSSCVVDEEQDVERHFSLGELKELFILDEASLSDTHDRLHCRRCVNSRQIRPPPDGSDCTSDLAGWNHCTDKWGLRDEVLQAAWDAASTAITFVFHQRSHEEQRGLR

[5] = molecular target: 26S proteasome non-ATPase regulatory subunit 14 (Homo sapiens, UniProt O00487); test: inhibition of proteasome subunit RPN11 – biochemical, fluorescence polarization, uHTS hits, confirmation (AID 602368); format: functional
[6] = molecular target: T3, Low molecular weight phosphotyrosine protein phosphatase (Homo sapiens, UniProt P24666); format: functional; details: read-out: IC50_Mean
T3 sequence (P24666 whole entry): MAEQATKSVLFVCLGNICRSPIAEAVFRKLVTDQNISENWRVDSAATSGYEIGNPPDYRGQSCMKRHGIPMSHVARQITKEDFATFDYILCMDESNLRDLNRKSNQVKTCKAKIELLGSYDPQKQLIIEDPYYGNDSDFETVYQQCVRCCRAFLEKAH

[7] = molecular target: T3, Low molecular weight phosphotyrosine protein phosphatase; format: functional; details: read-out: IC50_Mean; remark: listed apart in the source
[8] = molecular target: Dual specificity protein phosphatase 3 (Homo sapiens, UniProt P51452); test: VHR phosphatase inhibition, dose response, selectivity assay for STEP inhibitor project, biochemical (AID 602374); format: functional; details: read-out: IC50_Mean
[9] = molecular target: T4, Tyrosine-protein phosphatase non-receptor type 22 (Homo sapiens, UniProt Q9Y2R2); test: lymphoid phosphatase LYP inhibitors – biochemical, selectivity assay for STEP inhibitor project, dose response (AID 624241); format: functional
T4 sequence (Q9Y2R2 whole entry): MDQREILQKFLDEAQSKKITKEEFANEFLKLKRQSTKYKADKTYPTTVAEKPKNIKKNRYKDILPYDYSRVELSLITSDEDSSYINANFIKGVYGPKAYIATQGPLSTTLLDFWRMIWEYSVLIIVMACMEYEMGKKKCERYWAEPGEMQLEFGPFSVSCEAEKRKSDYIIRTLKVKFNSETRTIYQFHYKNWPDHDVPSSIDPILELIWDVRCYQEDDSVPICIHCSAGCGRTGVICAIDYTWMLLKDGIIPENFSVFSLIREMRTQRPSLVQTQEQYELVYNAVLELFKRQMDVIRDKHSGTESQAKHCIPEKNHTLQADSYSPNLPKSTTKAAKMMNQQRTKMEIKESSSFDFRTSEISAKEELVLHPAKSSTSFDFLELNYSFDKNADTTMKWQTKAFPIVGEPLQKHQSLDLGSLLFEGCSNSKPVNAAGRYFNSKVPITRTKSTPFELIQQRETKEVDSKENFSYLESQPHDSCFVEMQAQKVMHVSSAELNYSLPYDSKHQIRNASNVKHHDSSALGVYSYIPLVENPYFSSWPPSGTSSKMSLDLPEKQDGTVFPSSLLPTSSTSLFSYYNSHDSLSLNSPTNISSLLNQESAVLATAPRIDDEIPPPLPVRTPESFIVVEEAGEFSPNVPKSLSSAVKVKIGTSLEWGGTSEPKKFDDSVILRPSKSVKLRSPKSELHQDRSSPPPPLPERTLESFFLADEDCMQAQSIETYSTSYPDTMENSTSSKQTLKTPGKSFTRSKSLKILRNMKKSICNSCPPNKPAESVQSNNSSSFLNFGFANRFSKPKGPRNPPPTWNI

[10] = molecular target: Tyrosine-protein phosphatase non-receptor type 11 (Homo sapiens, UniProt Q06124); test: PTPN11 enzyme inhibitors – biochemical, selectivity assay for STEP inhibitor project, dose response (AID 602367); format: functional; details: read-out: IC50_Mean
[11] = molecular target: T4, Tyrosine-protein phosphatase non-receptor type 22; test: PTPN22 enzyme inhibitors – biochemical, fluorescence, LYP catalytic domain, selectivity assay for LMPTP inhibitor project, dose response (AID 652006); format: functional; details: read-out: IC50_Mean
[12] = molecular target: Tyrosine-protein phosphatase non-receptor type 5 (Homo sapiens, UniProt P54829); test: PTPN5 enzyme inhibition – biochemical, fluorescence intensity, uHTS hits, confirmation (AID 602372); format: functional; details: read-out: IC50_Mean
Protein Wnt-3a = Protein Wnt-3a (Mus musculus, UniProt P27467); test: SAR analysis of small molecule antagonists of Gli-SUFU in a Wnt3a luminescent reporter assay.; format: functional
[13] = anti-trypanosomal activity in BESM host cells – imaging, CA-I/72 strain, bovine embryo skeletal muscle, dry powder, dose response (AID 651885); format: functional, cell-based

Tyrosine-protein phosphatase non-receptor type 5, sequence (P54829 whole entry): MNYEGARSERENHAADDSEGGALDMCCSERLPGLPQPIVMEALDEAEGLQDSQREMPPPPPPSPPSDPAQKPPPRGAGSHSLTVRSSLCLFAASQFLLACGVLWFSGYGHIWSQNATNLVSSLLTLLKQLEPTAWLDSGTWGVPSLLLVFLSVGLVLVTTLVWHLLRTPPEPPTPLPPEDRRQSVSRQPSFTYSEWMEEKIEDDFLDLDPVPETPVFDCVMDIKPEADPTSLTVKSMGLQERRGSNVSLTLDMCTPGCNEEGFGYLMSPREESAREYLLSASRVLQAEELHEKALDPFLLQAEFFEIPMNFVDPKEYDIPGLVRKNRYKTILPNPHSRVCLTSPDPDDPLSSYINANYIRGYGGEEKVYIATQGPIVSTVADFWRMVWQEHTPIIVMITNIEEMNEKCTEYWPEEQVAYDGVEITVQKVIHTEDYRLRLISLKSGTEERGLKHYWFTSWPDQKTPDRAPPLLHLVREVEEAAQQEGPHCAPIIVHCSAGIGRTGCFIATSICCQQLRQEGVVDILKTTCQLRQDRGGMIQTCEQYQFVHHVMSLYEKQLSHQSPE
Tyrosine-protein phosphatase non-receptor type 11, sequence (Q06124 whole entry, the tested form may be a part): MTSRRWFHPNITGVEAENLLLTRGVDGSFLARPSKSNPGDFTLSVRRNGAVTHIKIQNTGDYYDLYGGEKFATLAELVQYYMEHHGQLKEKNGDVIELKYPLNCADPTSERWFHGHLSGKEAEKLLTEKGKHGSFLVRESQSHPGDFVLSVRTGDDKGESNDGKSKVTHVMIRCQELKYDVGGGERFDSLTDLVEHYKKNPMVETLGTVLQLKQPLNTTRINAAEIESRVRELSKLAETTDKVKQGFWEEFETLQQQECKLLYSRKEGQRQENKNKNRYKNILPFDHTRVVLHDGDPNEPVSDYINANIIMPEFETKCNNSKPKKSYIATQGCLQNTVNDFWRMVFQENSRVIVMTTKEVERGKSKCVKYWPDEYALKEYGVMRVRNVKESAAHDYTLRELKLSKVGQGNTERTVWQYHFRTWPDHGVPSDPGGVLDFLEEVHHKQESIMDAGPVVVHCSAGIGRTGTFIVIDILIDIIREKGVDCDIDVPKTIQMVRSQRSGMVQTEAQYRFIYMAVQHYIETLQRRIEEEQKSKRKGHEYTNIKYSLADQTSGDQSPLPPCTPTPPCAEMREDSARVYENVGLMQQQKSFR
26S proteasome non-ATPase regulatory subunit 14, sequence (O00487 whole entry): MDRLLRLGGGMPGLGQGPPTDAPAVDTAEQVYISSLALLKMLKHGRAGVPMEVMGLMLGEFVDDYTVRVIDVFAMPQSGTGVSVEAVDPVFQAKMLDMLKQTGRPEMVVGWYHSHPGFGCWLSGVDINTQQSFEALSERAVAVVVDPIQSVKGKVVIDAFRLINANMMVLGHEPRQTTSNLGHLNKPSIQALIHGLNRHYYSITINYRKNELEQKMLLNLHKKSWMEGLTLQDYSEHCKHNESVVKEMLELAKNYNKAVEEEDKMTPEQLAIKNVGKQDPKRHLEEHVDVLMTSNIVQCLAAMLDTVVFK
Dual specificity protein phosphatase 3, sequence (P51452 whole entry): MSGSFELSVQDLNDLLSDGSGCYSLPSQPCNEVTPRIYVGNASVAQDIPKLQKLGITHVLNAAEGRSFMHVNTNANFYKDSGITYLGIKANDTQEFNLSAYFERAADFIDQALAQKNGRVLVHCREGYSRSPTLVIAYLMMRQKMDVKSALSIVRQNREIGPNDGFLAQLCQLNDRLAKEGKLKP
Protein Wnt-3a, sequence (P27467 whole entry): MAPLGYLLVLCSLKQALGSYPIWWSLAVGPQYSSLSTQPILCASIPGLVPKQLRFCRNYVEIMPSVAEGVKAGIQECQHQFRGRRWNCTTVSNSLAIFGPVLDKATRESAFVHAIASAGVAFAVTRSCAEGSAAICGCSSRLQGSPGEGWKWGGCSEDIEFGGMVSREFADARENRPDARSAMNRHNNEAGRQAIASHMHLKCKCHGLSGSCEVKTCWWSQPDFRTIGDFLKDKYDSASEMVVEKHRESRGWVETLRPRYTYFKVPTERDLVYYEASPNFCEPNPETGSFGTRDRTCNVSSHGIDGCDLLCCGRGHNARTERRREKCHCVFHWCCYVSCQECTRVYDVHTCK
72 kDa type IV collagenase, sequence (P08253 whole entry): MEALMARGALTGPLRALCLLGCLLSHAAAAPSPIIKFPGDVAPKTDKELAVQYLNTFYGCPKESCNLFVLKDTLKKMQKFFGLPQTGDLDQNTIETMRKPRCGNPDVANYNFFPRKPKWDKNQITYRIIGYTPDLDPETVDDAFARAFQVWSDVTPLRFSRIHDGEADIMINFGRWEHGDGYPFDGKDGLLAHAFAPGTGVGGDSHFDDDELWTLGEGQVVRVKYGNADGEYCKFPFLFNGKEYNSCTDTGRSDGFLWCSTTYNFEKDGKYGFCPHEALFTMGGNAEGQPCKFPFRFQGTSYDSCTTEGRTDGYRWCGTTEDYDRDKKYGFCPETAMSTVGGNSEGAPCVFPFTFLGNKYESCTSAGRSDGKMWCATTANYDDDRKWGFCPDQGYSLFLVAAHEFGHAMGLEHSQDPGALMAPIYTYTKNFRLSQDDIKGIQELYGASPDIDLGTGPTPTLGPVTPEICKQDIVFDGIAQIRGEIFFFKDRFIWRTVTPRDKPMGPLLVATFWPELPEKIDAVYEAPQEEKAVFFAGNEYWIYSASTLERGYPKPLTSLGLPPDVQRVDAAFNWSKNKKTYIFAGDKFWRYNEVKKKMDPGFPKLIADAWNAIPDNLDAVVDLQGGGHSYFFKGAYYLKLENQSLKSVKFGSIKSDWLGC

COc1ccccc1-c1nnc(S)n1-c1ccccc1
IC50 (cells): > 138 µM (inactive)

N#Cc1c(Nc2ccccc2)[n+]([O-])c2ccc(Cl)cc2[n+]1[O-]
AC50 (BHK-21): 38.5 µM (active) | AC50 (Vero): 22.5 µM (active) | AC50 (A549): 20.7 µM (active)

COC(=O)c1c(NC(=O)c2ccc(S(=O)(=O)N3CC(C)OC(C)C3)cc2)sc2c1CCN(C)C2 (centres undefined)
AC50 [1]: 11.8 µM (active) | IC50 (Prothrombin): 37.4 µM (active) | IC50 [2]: > 100 µM (inactive) | AC50 [3]: 24.6 µM (active) | AC50 [4]: 55.4 µM (active) | IC50 [5]: 29.5 µM (active)

O=C(N/N=C/c1ccc(Br)s1)c1cccc([N+](=O)[O-])c1
IC50 [6]: 9.2 µM (active) | IC50 [7]: 9.56 µM (active) | IC50 [8]: 3.4 µM (active) | IC50 [9]: 64.9 µM (inactive) | IC50 [10]: 2.15 µM (active) | IC50 [11]: 18.2 µM (active) | IC50 [12]: 7.95 µM (active)

CC1CCN(c2cc(NC(=O)c3ccccc3)ncn2)CC1
IC50 (Protein Wnt-3a): > 21.8 µM (inactive)

CC(C)N1C[C@H](C)[C@@H](CN(C)C(=O)OC(C)(C)C)Oc2c(NC(=O)c3ccccn3)cccc2C1=O
IC50 [13]: 10.3 µM (inconclusive)
